Data: patent US20190169181A1, “FUMAGILLOL COMPOUNDS AND METHODS OF MAKING AND USING SAME” (Zafgen, Inc., priority 2016, published 2019)

How the values were obtained:
[1] = test system: rat DIO model (Sprague Dawley rats on 45% High Fat diet); experiment: 11 day rat DIO model, weight loss vs. vehicle; type: in vivo; conditions: for Rat @ 0.3 mpk sc (%) weight loss vs. vehicle: 0.3 mpk sc once a day for 11 days; for Rat @ 1.0 mpk sc (%) weight loss vs. vehicle: 1.0 mpk sc once a day for 11 days
Text: The objective of this study design is to investigate the efficacy of disclosed compounds in an 11 day rat DIO model used to screen compounds for pharmacologic efficacy on endpoints related to obesity and metabolism. Effects on body weight, food intake, hematology and blood chemistries were the primary readouts of this study design. Male Sprague Dawley rats, approximately 8 weeks of age, were ordered from a certified vendor and housed on irradiated corncob bedding in micro-isolator cages, on a 12-hour light-dark cycle (0700-1900) at 68-74° F. and 30-70% humidity. Rats were fed Research Diets D12451 (45% High Fat) and provided water ad libitum. Rats were received and housed in the facility for at least two or three weeks prior to start of test article administration. On Day −4 or −3, rats were randomized into study groups based on body weight and body weights were continued to be recorded daily for the duration of the study. Daily food intake was assessed starting on Study Day −2 by weighing the hopper including the food to avoid loss of food in transfer.
(§1) Compounds were formulated into a 100% DMSO stock (at 9 mg/mL) prior to the start, and further diluted into the target working concentration using the vehicle of 10% DMSO in water. Prior to test article administration, starting on Day −3 a dosing acclimation occurred with all animals receiving a subcutaneous injection of vehicle (10% DMSO) only for 3 days. Starting on Day 1, test compounds or vehicle were administered based on individual body weight, subcutaneously, once a day for 11 days. All animals were sacrificed on Day 11, approximately 2 hours following the final dosing on Day 11. After sacrifice, whole blood was collected and analyzed for hematology and blood chemistry parameters.
(§2) Compounds were tested for weight loss vs. vehicle at 0.3 and 1.0 mpk sc (mg per kg animal weight delivered subcutaneously), and the results are shown in Table 2 below.

[2] = test system: Diet Induced Obese (DIO) C57BL/6 mice; experiment: 10 day DIO mouse model, weight loss vs. vehicle; type: in vivo; conditions: 240 h; for inhibition in vivo at 0.3 mg/kg: 0.3 mpk sc once a day for 10 days; for inhibition in vivo at 1 mg/kg: 1.0 mpk sc once a day for 10 days
Text: The objective of this study design was to investigate the efficacy of disclosed compounds in a 10 day DIO mouse model. Effects on body weight, food intake, hematology and blood chemistry were the primary readouts of this study design. Male, Diet Induced Obese (DIO) C57BL/6 mice, 19-21 weeks of age (13-15 weeks on high fat diet) were ordered from a certified vendor and upon receipt were housed on irradiated corncob bedding in micro-isolator cages on a 12-hour light-dark cycle (0700-1900) at 68-74° F. and 30-70% humidity. Mice were fed Research Diets D12492 (60% Kcal fat, 20% Kcal carbohydrate and 20% protein) and provided water ad libitum. DIO mice were received and housed in the facility for approximately two weeks prior to the start of test article administration. On Day −4 or −3, mice were randomized into study groups based on body weight and body weights were continued to be recorded daily for the duration of the study. Daily food intake was assessed starting on Study Day −2 by weighing of the food with hopper together to avoid loss of food in transfer.
as §1, with “for 10” for “for 11”, “All mice” for “All animals”, “11, 24” for “11, approximately 2”, “Day 10.” for “Day 11.”
as §2

recombinant human MetAP2 = target: T1, recombinant human MetAP2 (Homo sapiens, UniProt P50579); experiment: Recombinant human MetAP2 enzyme inhibition assay (MAS peptide / amino acid oxidase / Amplex Ultrared readout); type: biochemical; conditions: Flag tagged human recombinant MetAP2, 25 minutes at 25° C.
T1 construct: Flag; made in house
Method: Compounds are tested for their capacity to inhibit recombinant human MetAP2 activity using the following assay.
Flag tagged Human recombinant MetAP2 expressed and isolated for use as the enzyme source. 10 mM stock solutions of compounds were prepared in 100% DMSO and further diluted in 100% DMSO required concentration to 1 mM stocks. The stock compound solutions and DMSO vehicle controls were diluted to target final compound concentrations using assay buffer to a final concentration of 50 mM HEPES containing 100 mM NaCl, pH adjusted to 7.5. The MAS peptide was formulated to a 7.5 mM stock in distilled water and prior to use further diluted 1:4. […] 40 μl of enzyme was mixed with 100 μl of MnCl2 then further diluted in assay buffer to a final concentration of 16 μg/ml. To test for compound effect on MetAP2 enzyme activity, 5 μl of test compound, 10 μl of MAS substrate/amino acid oxidase mixture, 10 μl of MetAP2 was added to test wells in a 384 well black plate with blank wells containing no enzyme, replaced with 10 μl of assay buffer. All compounds were tested in duplicate on two occasions on the same day.
The plate was sealed with a TopSeal A cover and mixed briefly on an orbital mixer at 900 rpm. The plate was incubated for a further 25 minutes at 25° C. A 5× stock of Amplex buffer was prepared (0.25 M sodium phosphate, pH 7.4) and stored at 4° C. […] Horse radish peroxidase was diluted in […] of Amplex buffer, 100 μl of this was combined with 50 μl of Amplex Ultrared in […] of 1× Amplex buffer to generate sufficient detection reagent for a 384 well plate. 25 μl detection reagent was added to each well of the test plate, which was re-sealed and mixed briefly on an orbital shaker. The plate was transferred to an Envision Multi-label reader and RFU measured corresponding to excitation 531 nm and emission 595 nm. At the end of the MetAP2 incubation 25 μl Amplex/HRP mixture per well was added and the plate read plate on a plate reader.

T1 sequence (P50579 whole entry): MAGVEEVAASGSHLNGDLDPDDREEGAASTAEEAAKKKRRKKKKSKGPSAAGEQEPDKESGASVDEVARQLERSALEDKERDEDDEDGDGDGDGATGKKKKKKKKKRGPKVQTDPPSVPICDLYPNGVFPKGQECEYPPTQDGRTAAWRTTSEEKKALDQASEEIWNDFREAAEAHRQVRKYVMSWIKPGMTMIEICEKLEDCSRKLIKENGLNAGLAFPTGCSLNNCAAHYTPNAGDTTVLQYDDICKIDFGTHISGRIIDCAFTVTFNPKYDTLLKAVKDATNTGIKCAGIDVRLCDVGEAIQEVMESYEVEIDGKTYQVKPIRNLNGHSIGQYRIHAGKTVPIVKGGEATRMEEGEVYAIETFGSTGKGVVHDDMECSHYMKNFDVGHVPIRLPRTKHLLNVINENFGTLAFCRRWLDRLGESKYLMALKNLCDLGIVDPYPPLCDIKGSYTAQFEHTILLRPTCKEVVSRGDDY

Compound	IC50 (recombinant human MetAP2) [nM]	Rat @ 0.3 mpk sc (%) weight loss vs. vehicle [1] [%]	Rat @ 1.0 mpk sc (%) weight loss vs. vehicle [1] [%]	inhibition in vivo at 0.3 mg/kg [2] [%]	inhibition in vivo at 1 mg/kg [2] [%]
CO[C@@H]1[C@H](OC(=O)N[C@H](Cc2nc(=O)o[nH]2)C(C)C)CC[C@]2(CO2)[C@H]1[C@@]1(C)O[C@@H]1CC=C(C)C [Example 30, (3R,4S,5S,6R)-5-methoxy-4-((2R,3R)-2-methyl-3-(3-methylbut-2-enyl)oxiran-2-yl)-1-oxaspiro[2.5]octan-6-yl (R)-3-methyl-1-(5-oxo-4,5-dihydro-1,2,4-oxadiazol-3-yl)butan-2-ylcarbamate]	50 to 500	0.7	−0.4	1.4	14.1
CO[C@@H]1[C@H](OC(=O)N[C@H](Cc2nnc[nH]2)C(C)C)CC[C@]2(CO2)[C@H]1[C@@]1(C)O[C@@H]1CC=C(C)C [Example 31, (3R,4S,5S,6R)-5-methoxy-4-((2R,3R)-2-methyl-3-(3-methylbut-2-enyl)oxiran-2-yl)-1-oxaspiro[2.5]octan-6-yl (R)-3-methyl-1-(4H-1,2,4-triazol-3-yl)butan-2-ylcarbamate]	< 50	–	–	2.4	2.5
CO[C@@H]1[C@H](OC(=O)N[C@H](Cc2nnc(N)o2)C(C)C)CC[C@]2(CO2)[C@H]1[C@@]1(C)O[C@@H]1CC=C(C)C [Example 32, (3R,4S,5S,6R)-5-methoxy-4-((2R,3R)-2-methyl-3-(3-methylbut-2-enyl)oxiran-2-yl)-1-oxaspiro[2.5]octan-6-yl (R)-1-(5-amino-1,3,4-oxadiazol-2-yl)-3-methylbutan-2-ylcarbamate]	< 50	–	–	3.9	0.8

Further lines, with some results ahead:

IC50 (recombinant human MetAP2) [nM]	Compound	Rat @ 0.3 mpk sc (%) weight loss vs. vehicle [1] [%]	Rat @ 1.0 mpk sc (%) weight loss vs. vehicle [1] [%]	inhibition in vivo at 0.3 mg/kg [2] [%]	inhibition in vivo at 1 mg/kg [2] [%]
50 to 500	CO[C@@H]1[C@H](OC(=O)N[C@H](c2cn(C[C@@H]3CCN(C)C3)cn2)C(C)C)CC[C@]2(CO2)[C@H]1[C@@]1(C)O[C@@H]1CC=C(C)C [Example 13, (3R,4S,5S,6R)-5-methoxy-4-((2R,3R)-2-methyl-3-(3-methylbut-2-enyl)oxiran-2-yl)-1-oxaspiro[2.5]octan-6-yl (S)-2-methyl-1-(1-(((R)-1-methylpyrrolidin-3-yl)methyl)-1H-imidazol-4-yl)propylcarbamate]	11.5	22	8.2	–
50 to 500	CO[C@@H]1[C@H](OC(=O)NCC(C)(C)c2cn(C[C@H]3CCCN3C)cn2)CC[C@]2(CO2)[C@H]1[C@@]1(C)O[C@@H]1CC=C(C)C [Example 38, (3R,4S,5S,6R)-5-methoxy-4-((2R,3R)-2-methyl-3-(3-methylbut-2-en-1-yl)oxiran-2-yl)-1-oxaspiro[2.5]octan-6-yl (2-methyl-2-(1-(((R)-1-methylpyrrolidin-2-yl)methyl)-1H-imidazol-4-yl)propyl)carbamate]	−1.7	–	5	5.5
50 to 500	CO[C@@H]1[C@H](OC(=O)N[C@H](c2noc(=O)[nH]2)C(C)C)CC[C@]2(CO2)[C@H]1[C@@]1(C)O[C@@H]1CC=C(C)C [Example 10, (3R,4S,5S,6R)-5-methoxy-4-((2R,3R)-2-methyl-3-(3-methylbut-2-enyl)oxiran-2-yl)-1-oxaspiro[2.5]octan-6-yl (S)-2-methyl-1-(5-oxo-4,5-dihydro-1,2,4-oxadiazol-3-yl)propylcarbamate]	–	–	4.1	2.9
50 to 500	CO[C@@H]1[C@H](OC(=O)N[C@H](c2cn(C[C@H]3CCN(CC(F)F)C3)cn2)C(C)C)CC[C@]2(CO2)[C@H]1[C@@]1(C)O[C@@H]1CC=C(C)C [Example 18, (3R,4S,5S,6R)-5-methoxy-4-((2R,3R)-2-methyl-3-(3-methylbut-2-enyl)oxiran-2-yl)-1-oxaspiro[2.5]octan-6-yl (S)-1-(1-(((S)-1-(2,2-difluoroethyl)pyrrolidin-3-yl)methyl)-1H-imidazol-4-yl)-2-methylpropylcarbamate]	–	–	-0.4	–
